Assay in all cases: inhibition of tumour cell growth, NCI panel, 48 h
Experiment [1] relates to DLD-1.
Experiment [2] concerns DMS-114.
Experiment [3] deals with DMS-273.
The test system of experiment [4] is HOP-18.
Experiment [5] concerns KM-20L2.
Experiment [6] deals with M19-MEL.
For experiment [7], the system named is RXF 631.
The subject of experiment [8] is SNB-78.
Experiment [9] concerns XF498.

Structures are written as SMILES.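 Five compound concentrations were applied to cells in 96-well plates for 48 hours; endpoints were derived by simple linear interpolation of the resulting dose-response curve. At the GI50, growth is halved.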 Calls of active or inactive are those of the source. No stated cut-off is given here; in the data, active = GI50 up to about 1.1 µM and inactive = higher.

As to `Nc1nc(-c2ccccc2)cc(-c2ccccc2O)n1`, the GI50 in [1] is 23.9 µM (inactive); in [2], 35.2 µM (inactive); in experiment [3] it was 32 µM (inactive); in experiment [4], > 100 µM (inactive); in experiment [5], 30.2 µM (inactive); in [6], 43.1 µM (inactive). Moreover, the figures for the GI50 in experiment [7], in experiment [8] and in [9] were 34.1 µM (inactive), 76.9 µM (inactive) and > 100 µM (inactive), respectively.

As to `CCCC/C=C1/CCC(CN(C)C)C1=O` (configuration not stated), the GI50 in experiment [1] is 0.863 µM (active); in experiment [2], 1.29 µM (inactive); in experiment [3] it was 2.71 µM (inactive); in experiment [4], 2.22 µM (inactive); in experiment [5] it was 2.54 µM (inactive); in experiment [6] it was 1.41 µM (inactive). Moreover, the GI50 in [7] is 1.65 µM (inactive); in experiment [8] it was 2.3 µM (inactive).

With `O=C(Cc1nc2ccccc2s1)C(=O)Nc1cccc(Cl)c1`, the GI50 in experiment [1], in [2], in experiment [3], in experiment [5], in experiment [6] and in experiment [7] was > 100 µM (inactive) each time. For the same molecule, the GI50 in experiment [8] and in experiment [9] was > 100 µM (inactive) throughout.

Take `COc1cc(CCCC(O)COc2cccc3c2C2(O)CCCCCC32)cc(OC)c1` (configuration not stated): the GI50 in experiment [1] is 20.1 µM (inactive); in [2] it was 11.4 µM (inactive); in [3], 20.5 µM (inactive); in experiment [4], 16 µM (inactive); in experiment [5], 14.1 µM (inactive); in experiment [6] it was 17 µM (inactive). The figures for the GI50 in experiment [8] and in experiment [9] were 20.7 µM (inactive) and 19.9 µM (inactive), respectively.

With `Cc1cccc(C)c1NC(=O)C1C(=O)N(c2c(C)cccc2C)C(=O)/C1=N\N` (configuration not stated), the GI50 in experiment [1], in experiment [3], in experiment [4], in experiment [5], in experiment [6] and in [7] was > 100 µM (inactive) in each case.

With `N#CC1(Cc2ccccc2[N+](=O)[O-])c2ccccc2C2C(N1C(=O)c1ccccc1)C2(Cl)Cl` (configuration not stated), the GI50 in [1] is 3.6 µM (inactive); in experiment [2], > 100 µM (inactive); in [3], 28.2 µM (inactive); in [4], > 100 µM (inactive); in [5], 7.19 µM (inactive); in experiment [6], > 100 µM (inactive). Also, the GI50 in experiment [8] was 77.3 µM (inactive).

For the molecule `Cc1nc2sccn2c1C(=O)NC(=O)Nc1ccc(Cl)cc1`, the GI50 was > 100 µM (inactive) in experiment [1]; 50.5 µM (inactive) in experiment [2]; 74.1 µM (inactive) in experiment [3]; > 100 µM (inactive) in [5]; > 100 µM (inactive) in experiment [6]; 42.9 µM (inactive) in experiment [8]. Further, in experiment [9], the GI50 was 19.2 µM (inactive).

On to `CN(CN1C(=O)C2Cc3ccccc3CN2C1=O)c1ccccn1` (configuration not stated), for which the GI50 in experiment [1], in experiment [2], in experiment [3], in experiment [5], in [6] and in experiment [9] was > 100 µM (inactive) each time.

`CCOC(=N)CC(=O)NC(C)c1ccccc1` (configuration not stated): the GI50 in experiment [1], in experiment [3], in experiment [4], in [5], in experiment [6] and in experiment [7] was > 100 µM (inactive) in each case. Moreover, the GI50 in experiment [8] and in experiment [9] was > 100 µM (inactive) in each case.

For the molecule `Nc1ccc2ncc(NCc3ccc(F)cc3)nc2c1`, the GI50 is > 100 µM (inactive) in experiment [1]; 49 µM (inactive) in experiment [2]; > 100 µM (inactive) in [3]; > 100 µM (inactive) in [4]; > 100 µM (inactive) in experiment [5]; > 100 µM (inactive) in [6]. The GI50 was > 100 µM (inactive) in experiment [8] and 19.5 µM (inactive) in experiment [9].

`CC(=O)OCC1OC(OC2C(COC(C)=O)OC(Sc3ccccc3C)C(OC(C)=O)C2OC(C)=O)C(OC(C)=O)C(OC(C)=O)C1OC(C)=O` (configuration not stated): the GI50 in experiment [1], in experiment [2], in experiment [3], in [4], in [5] and in experiment [6] was > 100 µM (inactive) in each case. Further, in experiment [8], the GI50 is > 100 µM (inactive).

`CCOC(=O)/C(C(C)=O)=C1/N[C@H](C(=O)OCC)CS1`: the GI50 in experiment [1], in experiment [4], in [5], in experiment [6], in experiment [7] and in experiment [8] was > 100 µM (inactive) in each case. Besides, the GI50 in experiment [9] is > 100 µM (inactive).

As for `O=CC1=CCCC2(C1)OCCO2`, the GI50 in [1], in experiment [2], in experiment [3], in experiment [6], in [7] and in [8] was > 100 µM (inactive) throughout. Besides, in experiment [9], the GI50 was > 100 µM (inactive).

`O=S1(=O)CCC2=CC(C(F)(F)F)=CC(C(F)(F)F)=CN21`: the GI50 in experiment [1] was 0.339 µM (active); in experiment [2] it was 1.37 µM (inactive); in experiment [3], 0.767 µM (active); in experiment [4] it was 3.35 µM (inactive); in experiment [5], 2.11 µM (inactive); in experiment [6], 1.41 µM (inactive). In addition, the GI50 in experiment [7] is 1.95 µM (inactive); in experiment [8], 1.85 µM (inactive); in experiment [9], 1.79 µM (inactive).

On to `CC1(C)N=C(c2ccccn2)C(c2ccccn2)=NC1(C)C`, for which the GI50 in experiment [1], in experiment [2], in [3], in experiment [5], in experiment [6] and in experiment [7] was > 100 µM (inactive) throughout. For the same molecule, the GI50 in [8] and in [9] was > 100 µM (inactive) throughout.

`CCOC(=N)CC(=O)Nc1cccc(Cl)c1`: the GI50 was > 100 µM (inactive) in experiment [1]; > 100 µM (inactive) in experiment [3]; > 100 µM (inactive) in [5]; > 100 µM (inactive) in experiment [6]; > 100 µM (inactive) in experiment [7]; 5.65 µM (inactive) in [8]. In experiment [9], the GI50 is > 100 µM (inactive).

With `Cc1cccc(-c2nnc3s/c(=C\c4ccc5c(c4)OCO5)c(=O)n23)c1`, the GI50 in experiment [1], in experiment [2], in [3], in [4], in [5] and in experiment [6] was > 100 µM (inactive) each time. In addition, the GI50 in experiment [8] and in experiment [9] was > 100 µM (inactive) throughout.

Turning to `COc1ccccc1NC(=O)CC(=O)N1N=C(c2ccccc2)C(/N=N/c2ccc(Cl)cc2)C1=O` (configuration not stated), the GI50 was 49.7 µM (inactive) in [1]; 70.1 µM (inactive) in experiment [2]; 34.8 µM (inactive) in [3]; 71.8 µM (inactive) in [5]; 57.1 µM (inactive) in experiment [6]; 44.1 µM (inactive) in [7]. The GI50 was > 100 µM (inactive) in experiment [8] and 38.5 µM (inactive) in experiment [9].

For the molecule `CN1C(=O)C(C)(C)C2(SC(C)(C)C2(C)C)N(C)C1=S` (configuration not stated), the GI50 in experiment [1] was > 100 µM (inactive); in experiment [2], 67.3 µM (inactive); in experiment [3], > 100 µM (inactive); in experiment [4] it was > 100 µM (inactive); in experiment [6], > 100 µM (inactive); in experiment [8], > 100 µM (inactive).

Turning to `O=C1C[C@H]2CCCN2[C@@H](c2ccccc2)C1`, the GI50 in experiment [3], in experiment [4], in experiment [5], in [6], in [7] and in experiment [8] was > 100 µM (inactive) in each case. Also, in experiment [9], the GI50 was > 100 µM (inactive).

Take `Nc1c2ccccc2nc2c(C(=O)Nc3ccc(S(N)(=O)=O)cc3)cccc12`: the GI50 is > 100 µM (inactive) in experiment [1]; > 100 µM (inactive) in experiment [2]; 52.8 µM (inactive) in experiment [3]; > 100 µM (inactive) in experiment [5]; 60 µM (inactive) in experiment [6]; > 100 µM (inactive) in experiment [8]. For the same molecule, the GI50 in experiment [9] was 72.3 µM (inactive).

Turning to `[N-]=[N+]=C1C(=O)C2CC3CC1CC2C3` (configuration not stated), the GI50 in [1], in experiment [2], in [3], in [4], in experiment [5] and in experiment [6] was > 100 µM (inactive) throughout. Moreover, the GI50 in [7] and in experiment [8] was > 100 µM (inactive) in each case.

For the molecule `CC1=C(C(=O)Nc2ccccc2C)C(c2ccccc2)C(C(=O)Nc2ccccc2C)=C(C)N1`, the GI50 in experiment [1] was 41 µM (inactive); in experiment [2], 30.4 µM (inactive); in experiment [3], 49.5 µM (inactive); in [4] it was 36.6 µM (inactive); in experiment [5], 42.2 µM (inactive); in experiment [6], 37.2 µM (inactive). The GI50 was 32.9 µM (inactive) in experiment [8] and 23.1 µM (inactive) in experiment [9].

Take `COC(=O)[C@]12CCC(C)[C@H](C)[C@H]1C1=CCC3[C@@]4(C)CC[C@H](OC(C)=O)C(C)(C)C4CC[C@@]3(C)C1(C)C(O)C2` (some centres not stated): the GI50 in [1] was > 100 µM (inactive); in experiment [2], 61.7 µM (inactive); in experiment [3], > 100 µM (inactive); in [4] it was > 100 µM (inactive); in experiment [5] it was > 100 µM (inactive); in experiment [6] it was > 100 µM (inactive). Further, the GI50 in experiment [8] was > 100 µM (inactive); in [9], 27.9 µM (inactive).

In the case of `COc1ccc(/C=C(/C(=O)O)c2cc(OC)c(OC)c(OC)c2)cc1`, the GI50 in experiment [1] is 41.2 µM (inactive); in experiment [2], 40.2 µM (inactive); in experiment [3] it was 31.6 µM (inactive); in experiment [5], 22.2 µM (inactive); in [6] it was 79.8 µM (inactive); in [7], 46.8 µM (inactive). Further, in experiment [8], the GI50 was 35.8 µM (inactive).

The record behind these values is ChEMBL document CHEMBL1201862, “PubChem BioAssay data set” (2004).
